One data set concerns S. aureus. Nature of the data set: antibiotic activity (MIC). The class given is cell-based. To be noted: Staphylococcus aureus.
In another data set the test system is E. Coli. Nature of the data set: antibiotic activity (MIC). The class given is cell-based. The note with it: Escherichia coli, read-out: MIC, E. Coli.
A further data set relates to P. aerug. Nature of the data set: antibiotic activity (MIC). The format is cell-based.
Data set [1] deals with PHA-stimulated human lymphocytes. Nature of the data set: inhibition of mitogen (PHA)-stimulated growth of human T-cells. The note with it: Homo sapiens, Lymphocyte, read-out: inhibition of PHA-stimulated human lymphocytes (% control). The class given is cell-based. The text has this: Results are tabulated below.
Data set [2] deals with stage 59-60 Xenopus tadpoles. To be noted: 10 μg/ml in water.
The format of data set [3] is physicochemical. The text has this:
Compound 1361 was isolated from shark liver preparations in two different ways: first, as a degradation product of compound 1360; and, subsequently,as a minor aminosterol component fractionating with slightly faster retention time than squalamine during preparative C18 RP-HPLC (component of Fraction VI). In early attempts to purify each aminosterol to homogeneity, pooled fractions from C18 RP-HPLC were subjected to silica gel flash chromatography with CH2 Cl2 :CH30 H:NH4 OH 6:3:1, and the aminosterols were assayed on TLC plates. The pools of free base steroids were then re-subjected to C18 RP-HPLC, using an analytical column.

Data set [4] concerns chick embryo vitelline capillaries. Nature of the data set: chick embryo vitelline capillary regression assay. The class given is in vivo. Set-up: key to vitelline capillary regression: +: Vascular reactivity; 0: No vascular reactivity; +/-: Equivocal reactivity. Summed up: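 Compounds applied to 3- to 5-day chick embryos in 0.1 ml of 15% Ficol 400 in PBS. Regression of vitelline capillaries, seen as pinching-off of capillary loops into enclosed sacs, was scored visually after 60 minutes.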

The subject of another data set is HM. Nature of the data set: HM MTT assay. The class given is cell-based. To be noted: Table II; read-out: Minimum Effective Concentration, HM MTT assay. (In general: Formazan colour is commonly taken as a measure of viable cells.)

In brackets after ≈: the same amount, converted by molar mass. Where two headings read alike, the source gives them in different places.

For orientation: MIC means the smallest concentration in the dilution series that meets the test's criterion for growth inhibition. As to `CC(C)CCC[C@@H](C)[C@H]1CC[C@H]2[C@@H]3CC[C@H]4C[C@H](NCCCN5CCCCN=C5N)CC[C@]4(C)[C@H]3CC[C@]12C`, the lowest concentration to inhibit growth in the data set with S. aureus (MIC) was 2 µg/mL (≈ 3.7 µM).
With `COC(=O)CCC(C)[C@H]1CCC2C3C[C@@H](O)[C@H]4C[C@H](NCCN)CC[C@]4(C)C3CC[C@@]21C` (stereo partly drawn), the MIC in the data set on E. Coli is 32 to 44 µg/mL (≈ 71.3 to 98.1 µM); against P. aerug, 128 µg/mL (≈ 285 µM).
By inhibition is commonly meant how much of the control response was suppressed. Turning to `CC(COS(=O)(=O)O)C(=O)CC[C@@H](C)[C@H]1CC[C@H]2[C@@H]3[C@H](O)C[C@H]4C[C@@H](NCCCNCCCCN)CC[C@]4(C)[C@H]3CC[C@]12C` (single isomer, unassigned) [Compound 1360], the inhibition at 1 µg/mL in data set [1] (1 μg/ml) stood at 5%. For the same molecule, the inhibition at 5 µg/mL in data set [1] (5 μg/ml) worked out at 5%. In addition, the inhibition at 10 µg/mL in data set [1] (10 μg/ml) came to 5%. The “pharmacological response in tadpole” value is “Swelling and lysis of certain erythrocytes occurred, resulting in accumulation of nuclei within certain small vessels of the tail. Subsequent tissue breakdown occurred in areas of tail surrounding these nuclear plugs” in data set [2]; “extensive vasocclusion occurred within 60 minutes throughout the tail” in data set [2] (listed as compound 1360). Also, in data set [3], the chemical stability result was “undergoes a dehydration of the 27 hydroxyl, loss of sulfate, and generation of the corresponding 27-ene”. Also, the vitelline capillary regression in data set [4] (1 μg applied, 60 minutes) was 0. Also, in data set [4] (within 20 minutes), the “effect on blood color in chick embryo” value is listed as “the blood circulating through the embryonic vessels exhibited a brighter red color”.
Consider `COC(=O)CCC(C)[C@H]1CCC2C3CC[C@H]4C[C@H](NCCCNCCCCNCCCN)CC[C@]4(C)C3CC[C@@]21C` (stereo partly drawn) [drawing 108], for which, in the data set on HM, the minimal effective concentration stood at 6.8 µg/mL.
